Experimental data taken from patent US10882856B2 (BeiGene, Ltd., priority 2017, dated 2021).
Like-named read-outs stand apart in the source and are kept apart here.

How the values were obtained:
[1] = target: T1, cellular TDO2 in HEK293-TDO2 cells (Homo sapiens, UniProt P48775); assay: 293-TDO2 cell-based assay (Kyn colorimetric); conditions: 48 hours of incubation
T1 construct: expressed in transfected cells; host or cells: HEK293 (ATCC), stably transfected
Method: The inhibitory activity of TDO2 inhibitors is determined by using a colorimetric reaction to measure Kyn generated from L-Trp (L-Tryptophon) oxidation by cellular TDO2 in HEK293-TDO2 cells stably transfected with a plasmid expression of Tryptophan 2,3-dioxygenase (for short, 293-TDO2).
HEK293 cells were obtained from the American Type Culture Collection and 293-TDO2 were recovered in 10% FBS-containing phenol red-free DMEM medium. Cells were plated onto a 96-well plate (100 μl/well) at 10000 cells per well and kept at 37° C. in a humidified incubator supplied with 5% CO2. 4 hours later, Compounds at different concentrations diluted in dimethylsulfoxide (DMSO) were added to plate. Cells were kept at 37° C. in a humidified incubator supplied with 5% CO2. After 48 hours of incubation, 100 μl supernatant from each well was removed to a new plate. The protein in the medium was precipitated with the addition of 8 μl 6N trichloroacetic acid. The plate was incubated at 60° C. for 30 minutes and then centrifugation at 2500 rpm for 10 minutes to remove sediments. 80 μl supernatants were carefully removed to a new clean plate and added with an equal volume of 2% 4-(Dimethylamino) benzaldehyde (D2004, sigma) dissolved in glacial acetic acid. The absorbance at 480 nm wavelength derived from Kyn was measured using a PHERAstar FS plate reader (BMG LABTECH). The IC50 for each compound was derived from fitting the dose-response data to the four-parameter logistic model by using XLfit software (IDBS).

[2] = target: T2, IDO1 (Homo sapiens, UniProt P14902); assay: IDO1 enzymatic assay; type: biochemical; parameters: His tag (N); made in house; host or cells: E. coli
Outline: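 Recombinant IDO1 carrying an N-terminal His tag and purified from E. coli was used at 50 nM with test compound, 1.3 mM D-tryptophan, 5 mM L-ascorbic acid, methylene blue and 0.4 mg/mL catalase in 50 mM potassium phosphate pH 7.5 containing 0.1% BSA. This mixture was incubated at 24 °C for 1.5 hours, after which N'-formylkynurenine formation was followed continuously at 321 nm for 1 hour and activity was taken as the slope. IC50 was derived from the enzyme activity remaining as compound concentration increased.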

[3] = target: T2, IDO1; assay: Hela cell-based IDO1 assay; conditions: Hela cells
Outline: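 HeLa cells were plated at 8000 per well in 96-well plates containing phenol red-free DMEM with 10% FBS, and after 4 hours compound dilutions made in DMSO were added together with IFN-γ (final 100 ng/mL) and 0.4 mM L-Trp before 48 hours at 37 °C, 5% CO2. Supernatants were deproteinised with trichloroacetic acid, mixed with 2% 4-(dimethylamino)benzaldehyde and read at 480 nm for kynurenine. Four-parameter logistic fits were run in XLfit. Potency was derived from these fits.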

T1 sequence (P48775 whole entry): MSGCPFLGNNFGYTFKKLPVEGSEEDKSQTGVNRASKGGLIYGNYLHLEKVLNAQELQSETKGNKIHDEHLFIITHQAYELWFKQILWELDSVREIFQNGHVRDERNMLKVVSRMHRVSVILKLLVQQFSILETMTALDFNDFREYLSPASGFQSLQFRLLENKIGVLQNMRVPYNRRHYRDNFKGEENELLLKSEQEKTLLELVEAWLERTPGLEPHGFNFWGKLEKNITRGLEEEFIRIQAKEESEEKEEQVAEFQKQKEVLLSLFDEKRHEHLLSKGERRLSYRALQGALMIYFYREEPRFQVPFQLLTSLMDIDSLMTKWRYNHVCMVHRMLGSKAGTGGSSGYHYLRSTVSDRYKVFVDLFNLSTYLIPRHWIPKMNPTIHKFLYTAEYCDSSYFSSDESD
T2 sequence (P14902 whole entry): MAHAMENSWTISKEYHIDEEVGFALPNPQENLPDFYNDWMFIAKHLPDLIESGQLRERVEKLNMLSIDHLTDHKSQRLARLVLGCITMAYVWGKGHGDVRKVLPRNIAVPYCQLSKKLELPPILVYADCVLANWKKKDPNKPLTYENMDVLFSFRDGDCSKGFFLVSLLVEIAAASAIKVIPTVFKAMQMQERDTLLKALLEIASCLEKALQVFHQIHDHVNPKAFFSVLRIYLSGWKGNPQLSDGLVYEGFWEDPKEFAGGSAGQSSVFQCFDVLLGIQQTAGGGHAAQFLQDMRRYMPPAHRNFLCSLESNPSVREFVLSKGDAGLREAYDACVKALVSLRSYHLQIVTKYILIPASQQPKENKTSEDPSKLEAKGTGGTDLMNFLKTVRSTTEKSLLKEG

Row | Structure (SMILES) | EC50 [1] | IC50 ([2]; read-out: Enzyme IC50 IDO1) | EC50 [3] | IC50 ([2]; heading: Enzyme IC50 IDO1)
1 | O[C@@H](c1c(C2CC2)ccn2cncc12)[C@H]1CC[C@H](c2cccc3ncccc32)CC1 (single isomer, unassigned) [Example C126b] | > 10 µM | 1900 nM | 6050 nM | 
2 | O[C@H](c1c(C2CC2)ccn2cncc12)[C@H]1CC[C@H](c2ccnc3ccccc32)CC1 (single isomer, unassigned) [Example C130a] | > 10 µM | 17 nM | 44 nM | 
3 | O[C@@H](c1c(C2CC2)ccn2cncc12)[C@H]1CC[C@H](c2ccnc3ccccc32)CC1 (single isomer, unassigned) [Example C130b] | > 10 µM | 2500 nM | 6220 nM | 
4 | O[C@H](c1c(C2CC2)ccn2cncc12)[C@H]1CC[C@H](c2ccc(F)c(Cl)c2)CC1 (single isomer, unassigned) [Example C132a] | > 10 µM | 64 nM | 188 nM | 
5 | O[C@@H](c1c(C2CC2)ccn2cncc12)[C@H]1CC[C@H](c2ccc(F)c(Cl)c2)CC1 (single isomer, unassigned) [Example C132b] | > 10 µM | 2500 nM | > 10000 nM | 
6 | OC(c1c(C2CC2)ccn2cncc12)C1CCN(c2ccccc2)CC1 (single isomer, unassigned) [Example C136a] | > 10 µM | 21 nM | 47 nM | 
7 | OC(c1c(C2CC2)ccn2cncc12)C1CCN(c2ccccc2)CC1 (single isomer, unassigned) [Example C136b] | > 10 µM | 5400 nM | > 10000 nM | 
8 | OC(c1c(C2CC2)ccn2cncc12)C1CCN(c2ccc(F)cc2)CC1 (single isomer, unassigned) [Example C137a] | > 10 µM | 26 nM | 74 nM | 
9 | OC(c1c(C2CC2)ccn2cncc12)C1CCN(c2ccc(F)cc2)CC1 (single isomer, unassigned) [Example C137b] | > 10 µM | 4100 nM | > 10000 nM | 
10 | N#Cc1ccc(N2CCC(C(O)c3c(C4CC4)ccn4cncc34)CC2)cc1 (single isomer, unassigned) [Example C144a] | > 10 µM | 19 nM | 476 nM | 
11 | N#Cc1ccc(N2CCC(C(O)c3c(C4CC4)ccn4cncc34)CC2)cc1 (single isomer, unassigned) [Example C144b] | > 10 µM | > 10000 nM | > 10000 nM | 
12 | OC(c1c(C2CC2)ccn2cncc12)C1CCN(c2ccc(F)c3ncccc23)CC1 (single isomer, unassigned) [Example C149b] | > 10 µM | 2400 nM | 2910 nM | 
13 | OC(c1c(C2CC2)ccn2cncc12)C1CCN(c2ccc(Cl)c3ncccc23)CC1 (single isomer, unassigned) [Example C154a] | > 10 µM | 16 nM | 18 nM | 
14 | OC(c1c(C2CC2)ccn2cncc12)C1CCN(c2ccc(Cl)c3ncccc23)CC1 (single isomer, unassigned) [Example C154b] | > 10 µM | 2900 nM | 6450 nM | 
15 | OC(c1c(C2CC2)ccn2cncc12)C1CCN(c2ccc(F)c3cccnc23)CC1 (single isomer, unassigned) [Example C155a] | > 10 µM | 7500 nM | > 10000 nM | 
16 | OC(c1c(C2CC2)ccn2cncc12)C1CCN(c2ccc(F)c3cccnc23)CC1 (single isomer, unassigned) [Example C155b] | > 10 µM | 26 nM | 40 nM | 
17 | O[C@@H](c1c(C2CC2)ccc2cncn12)[C@H]1CC[C@H](c2ccccc2)CC1 (single isomer, unassigned) [Example D101b] | > 10 µM | 1300 nM | 6140 nM | 
18 | COc1ccc([C@H]2CC[C@H]([C@@H](O)c3c(C4CC4)ccc4cncn34)CC2)cc1 (single isomer, unassigned) [Example D102b] | > 10 µM |  | 6770 nM | > 10000 nM
